The values below come from patent US5610174A, “Use of α1A -selective adrenoceptor agonists for the treatment of urinary incontinence” (priority 1995, dated 1997).

Where two headings read alike, the source gives them in different places. Where only a bound is given, the exact number is not on record here.

Experiment [1] deals with T1, human dopamine D2 receptor (Homo sapiens, UniProt P14416).
T1 construct: expressed in transfected cells; host or cells: COS-7 (plasmid pcEXV-D2, ATCC 75344)
Nature of the experiment: Radioligand binding at human dopamine D2. Particulars: [3H]spiperone; for Ki: read-out: pKi D2 (converted). The protocol: Human Dopamine D2 Receptors
The affinity of compounds at the D2 receptor were determined using membrane preparations from COS-7 cells transfected with the gene encoding the human D2 receptor. The coding region for the human D2 receptor was obtained from a human striatum cDNA library, and cloned into the cloning site of PCDNA 1 eukariotic expression vector. The plasmid DNA for the D2 receptor is designated pcEXV-D2, and was deposited on Nov. 6, 1992 under ATCC Accession No. 75344. This construct was transfected into COS-7 cells by the DEAE-dextran method. Cells were harvested after 72 hours and lysed by sonication in 5mM Tris-HCl, 5 mM EDTA, pH 7.5. The cell lysates were centrifuged at 1000 rpm for 5 minutes at 4° C., and the supernatant was centrifuged at 30,000×g for 20 minutes at 4° C. The pellet was suspended in 50 mM Tris-HCl (pH 7.4) containing 1 mM EDTA, 5 mM KCl, 1.5 mM CaCl2, 4 mM MgCl2, and 0.1% ascorbic acid. The cell lysates were incubated with [3H]spiperone (2 nM), using 10 μM (+)Butaclamol to determine nonspecific binding.

The target of experiment [2] is T2, human dopamine D5 receptor (Homo sapiens, UniProt P21918).
T2 construct: expressed in transfected cells
Kind of experiment: Radioligand binding at human dopamine D5. Here is the method: Other Dopamine receptors were prepared by known methods. (D1 : Dearry et al., Nature, 347, 72, (1990), deposited with the European Molecular Biological Laboratory (EMBL) Genbank as X55760; D3 : Sokoloff, P. et al., Nature, 347, 146 (1990), deposited with the European Molecular Biological Laboratory (EMBL) Genbank as X53944; D5 : Sunahara, R. K., et al., Nature, 350, 614 (1991), deposited with EMBL Genbank as X58454-HU HD 5DR).

The next experiment addresses T3, human 5-HT1E receptor (Homo sapiens, UniProt P28566).
T3 construct: expressed in transfected cells; host or cells: LM(tk-) clonal cell line, designated 5-HT1E-7, ATCC CRL 10913 (cell lysates)
Nature of the experiment: Radioligand binding at human 5-HT1E. Particulars: [3H]serotonin; for Ki: read-out: pKi 5-HT1E (converted). The protocol: (§1) Human Serotonin Receptors
(§2) 5-HT1Dα, 5-HT1Dβ, 5-HT1E, 5-HT1F, and 5-HT7 Receptors: The cell lysates of LM(tk-) clonal cell line stably transfected with the genes encoding each of these 5-HT receptor-subtypes were prepared as described above. The cell line for the 5-HT1Dαreceptor, designated as Ltk-8-30-84, was deposited on Apr. 17, 1990, and accorded ATCC Accession No. CRL 10421. The cell for the 5-HT1Dβ receptor, designated as Ltk-11, was deposited on Apr. 17, 1990, and accorded ATCC Accession No. CRL 10422. The cell line for the 5-HT1E receptor, designated 5-HT1E -7, was deposited on Nov. 6, 1991, and accorded ATCC Accession No. CRL 10913. The cell line for the 5-HT1F receptor, designated L-5-HT1F, was deposited on Dec. 27, 1991, and accorded ATCC Accession No. CRL 10957. The cell line for the 5-HT7 receptor, designated as L-5-HT-4B, was deposited on Oct. 20, 1992, and accorded ATCC Accession No. CRL 11166. These preparations were suspended in 50 mM Tris-HCl buffer (pH 7.4 at 37° C.) containing 10 mM MgCl2, 0.2 mM EDTA, 10 μM pargyline, and 0.1% ascorbate. […] Nonspecific binding was determined in the presence of 10 μM serotonin. The bound radioligand was separated by filtration through GF/B filters using a cell harvester.

The next experiment addresses T4, human 5-HT7 receptor (Homo sapiens, UniProt P34969).
T4 construct: expressed in transfected cells; host or cells: LM(tk-) clonal cell line, designated L-5-HT-4B, ATCC CRL 11166 (cell lysates)
Kind of experiment: Radioligand binding at human 5-HT7. The protocol:
as §1
as §2, with “17, 1990, and accorded ATCC Accession No. CRL 10421.” left out, “17, 1990, and accorded ATCC Accession No. CRL 10422.” left out, “6, 1991, and accorded ATCC Accession No. CRL 10913.” left out, “27, 1991, and accorded ATCC Accession No. CRL 10957.” left out, “20, 1992, and accorded ATCC Accession No. CRL 11166.” left out

The target in the next experiment is T5, human α2A adrenoceptor (Homo sapiens, UniProt P08913).
T5 construct: expressed in transfected cells; host or cells: LM(tk-)
T5 sequence (P08913 1-465): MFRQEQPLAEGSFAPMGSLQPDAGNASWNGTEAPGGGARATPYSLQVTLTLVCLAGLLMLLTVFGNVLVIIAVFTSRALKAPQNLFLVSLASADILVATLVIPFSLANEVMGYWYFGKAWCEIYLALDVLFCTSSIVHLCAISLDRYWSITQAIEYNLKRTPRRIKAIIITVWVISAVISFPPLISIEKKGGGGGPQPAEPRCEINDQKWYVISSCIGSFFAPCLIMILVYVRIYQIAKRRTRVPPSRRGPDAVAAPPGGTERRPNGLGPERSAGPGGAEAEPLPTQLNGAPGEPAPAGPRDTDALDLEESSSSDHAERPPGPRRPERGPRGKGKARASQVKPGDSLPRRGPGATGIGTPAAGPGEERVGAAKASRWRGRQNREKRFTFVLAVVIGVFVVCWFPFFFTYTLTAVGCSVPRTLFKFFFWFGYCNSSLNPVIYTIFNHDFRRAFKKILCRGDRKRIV
Kind of experiment: Inhibition of forskolin stimulated adenylyl cyclase, α2A. The format is cell-based. Particulars: for Emax: read-out: intrinsic activity (i.a.) α2A. Here is the method:
α2 -Adrenoceptor-Mediated Inhibition of Forskolin Stimulated Adenylyl Cyclase
The agonist activity of test compounds was assayed by measuring their ability to inhibit adenylyl cyclase in cells stably transfected with each of the three cloned human α2 -adrenoceptors. LM(tk-) cells expressing the α2A - or the α2C -, as well as Y1 cells expressing the α2B -adrenoceptor were used. […] The formation of cyclic AMP was measured in cultures incubated with DMEM containing 1 mM theophylline. […] The data from concentration-response curves was fitted to a four-parameter logistic equation, by non-linear regression analysis, to determine the pEC50 and intrinsic activity.

T4 sequence (P34969 1-445 isoform P34969-2): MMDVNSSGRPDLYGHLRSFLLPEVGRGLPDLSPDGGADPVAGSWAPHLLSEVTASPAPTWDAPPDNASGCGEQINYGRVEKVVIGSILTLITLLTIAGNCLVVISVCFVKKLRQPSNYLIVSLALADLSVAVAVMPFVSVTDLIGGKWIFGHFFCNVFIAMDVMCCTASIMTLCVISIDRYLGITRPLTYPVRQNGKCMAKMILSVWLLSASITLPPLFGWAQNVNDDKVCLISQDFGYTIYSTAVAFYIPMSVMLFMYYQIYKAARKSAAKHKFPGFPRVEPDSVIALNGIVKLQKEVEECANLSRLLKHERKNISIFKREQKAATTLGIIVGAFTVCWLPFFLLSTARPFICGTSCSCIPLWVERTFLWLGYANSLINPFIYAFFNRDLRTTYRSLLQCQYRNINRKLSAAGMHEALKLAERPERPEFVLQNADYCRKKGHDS
T3 sequence (P28566 whole entry): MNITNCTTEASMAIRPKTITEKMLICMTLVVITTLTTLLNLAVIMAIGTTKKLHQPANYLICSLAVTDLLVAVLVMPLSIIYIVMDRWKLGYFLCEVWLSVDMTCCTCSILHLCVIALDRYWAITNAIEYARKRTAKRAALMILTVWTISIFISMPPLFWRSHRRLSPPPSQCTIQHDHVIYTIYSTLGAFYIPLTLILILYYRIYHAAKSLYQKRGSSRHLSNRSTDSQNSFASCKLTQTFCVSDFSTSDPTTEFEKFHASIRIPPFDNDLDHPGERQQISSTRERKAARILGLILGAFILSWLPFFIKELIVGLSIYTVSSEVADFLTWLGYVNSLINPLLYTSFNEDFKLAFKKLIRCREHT
T2 sequence (P21918 whole entry): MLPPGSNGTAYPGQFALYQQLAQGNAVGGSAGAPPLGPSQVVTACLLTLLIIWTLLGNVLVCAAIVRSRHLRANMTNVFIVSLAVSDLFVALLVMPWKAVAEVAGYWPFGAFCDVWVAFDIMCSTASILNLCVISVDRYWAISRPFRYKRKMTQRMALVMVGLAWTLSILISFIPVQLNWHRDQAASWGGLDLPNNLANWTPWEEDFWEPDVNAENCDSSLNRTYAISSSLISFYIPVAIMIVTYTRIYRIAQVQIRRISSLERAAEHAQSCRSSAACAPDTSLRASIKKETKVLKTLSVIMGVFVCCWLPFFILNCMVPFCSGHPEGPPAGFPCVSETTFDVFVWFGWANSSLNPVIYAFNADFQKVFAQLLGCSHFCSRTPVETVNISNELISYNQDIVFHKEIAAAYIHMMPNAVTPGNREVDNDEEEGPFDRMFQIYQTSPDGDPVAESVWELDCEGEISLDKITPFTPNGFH
T1 sequence (P14416 whole entry): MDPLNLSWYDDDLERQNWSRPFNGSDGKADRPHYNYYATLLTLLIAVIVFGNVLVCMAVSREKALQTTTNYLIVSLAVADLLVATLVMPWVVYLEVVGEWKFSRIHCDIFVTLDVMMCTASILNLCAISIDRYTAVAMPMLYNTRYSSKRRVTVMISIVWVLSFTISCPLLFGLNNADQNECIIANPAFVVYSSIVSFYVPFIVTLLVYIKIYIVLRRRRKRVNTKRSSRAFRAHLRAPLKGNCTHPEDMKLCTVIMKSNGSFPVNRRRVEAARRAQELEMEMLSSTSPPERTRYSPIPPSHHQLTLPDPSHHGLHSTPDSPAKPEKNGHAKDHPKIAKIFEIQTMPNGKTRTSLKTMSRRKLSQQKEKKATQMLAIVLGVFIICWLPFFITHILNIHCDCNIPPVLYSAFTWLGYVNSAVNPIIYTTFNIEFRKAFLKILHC

`CS(=O)(=O)Nc1c(O)ccc2c1CCCC2C1=NCCN1` (racemic) [Compound A-61603, (±)-N-[5-(4,5-Dihydro-1H-imidazol-2-yl)-2-hydroxy-5,6,7,8-tetra-hydronaphthalen-1-yl]methanesulfonamide]: the Ki in experiment [1] was 10 µM; in experiment [2], 15.8 µM; on human 5-HT1E receptor, 5.01 µM; at human 5-HT7 receptor ([3H]serotonin, read-out: pKi 5-HT7 (converted)), 5.01 µM.
On to `COc1ccc(OC)c(C(O)CN)c1` (racemic) [ST-1059, (±)-2-Amino-1-(2, 5 dimethoxyphenyl) ethanol], for which, on human α2A adrenoceptor, the EC50 is 2.51 µM and the Emax amounted to 20%.
For `COc1ccc(SC)c2c1C[C@@H]1[C@@H](C2)OCCN1C` (relative stereo) [SDZ NVI-085, (±)-trans-4-Methyl-6-methoxy-9-thiomethoxy-3,4,4a, 5,10,10a-hexahydro-2H-naphtho[2,3-b][1,4]oxazine], at human α2A adrenoceptor (agonist, inhibition of forskolin stimulated adenylyl cyclase, read-out: pEC50 α2A (converted)), the EC50 was > 100 µM. Further, the Emax on human α2A adrenoceptor was 0%. The Ki is 3.16 µM in experiment [1], 20 µM in experiment [2] (read-out: pKi D5 (converted)), 2 µM at human 5-HT1E receptor and 0.1 µM on human 5-HT7 receptor.
As to `CN[C@@H](C)[C@H](O)c1ccccc1` [(-)-ephedrine], on human α2A adrenoceptor, the EC50 was 0.251 µM and the Emax is 30%.
On to `C[C@H](N)[C@H](O)c1ccccc1` [(-)-norephedrine], for which, on human α2A adrenoceptor, the EC50 is 0.00794 µM and the Emax worked out at 50%.
Consider `CNCCc1ccc(O)c(NS(C)(=O)=O)c1` [SK&F 102652], for which, at human α2A adrenoceptor (agonist, inhibition of forskolin stimulated adenylyl cyclase), the “pEC50 α2A” value was < 4.0. For the same compound, on human α2A adrenoceptor, the Emax is 0%. Also, in experiment [1], the “pKi D2” value came to 6.7. In addition, the “pKi D5” value in experiment [2] is reported as 4.8. The “pKi 5-HT1E” value at human 5-HT1E receptor is recorded as 5.3. Further, the “pKi 5-HT7” value on human 5-HT7 receptor ([3H]serotonin) is recorded as 5.3.
